# What was measured:
# [1] = alcohol such as tertiary butanol; cited from earlier work
# [2] = Stability of carmustine solution in TBA or dehydrated ethanol; type: physicochemical; details: storage at room temperature
# [3] = Visual solubility of carmustine in alcoholic solvents; type: physicochemical
compound,measurement,setting,value
"O=NN(CCCl)C(=O)NCCCl [Carmustine, 1,3-bis (2-chloroethyl)-1-nitrosourea]","solubility in alcohol, dichloromethane and ether",[1],very soluble
same,"time solution is stable, TBA",[2]; solution in TBA,at least 24 hrs
same,"time solution is stable, dehydrated ethanol",[2]; solution in dehydrated ethanol,at least 24 hrs
same,"precipitation on storage, TBA solution",[3]; TBA solution stored at about 2 to about 8° C.,Neither of the solutions showed any sign of precipitation
same,solubility in TBA,"[3]; TBA, room temperature, visually determined",> 1 g per mL
same,"precipitation on storage, dehydrated ethanol solution",[3]; dehydrated ethanol solution stored at about 2 to about 8° C.,Neither of the solutions showed any sign of precipitation
same,solubility in dehydrated ethanol,"[3]; dehydrated ethanol, room temperature, visually determined",> 1 g per mL
